US20090012140A1, “Preparation of Telmisartan Salts with Improved Solubility” (LEK PHARMACEUTICALS D.D, priority 2004, published 2009)

Legend:
[1] = Amount dissolved after 30 minutes at 37° C. (50 mg of compound in 100 ml baker, stirring at 600/min); format: physicochemical; conditions: for Solubility compared with sodium salt of telmisartan manufactured by lyophilization: comparison in words; for C30 min: 30 minutes, 37° C., 600/min
Protocol: (§1) In order to prepare a pharmaceutical composition physical properties were measured. The solubility of the telmisartan of its salt in accordance with our invention surpasses the solubility of known forms of telmisartan, and are above 10 μg/ml in phosphate buffer pH=6.8 and above 50 μg/ml in a physiologically relevant medium if measured as above. […] The salts are also very soluble in water (i.e dissolving approximately 500 mg/mL of Na salt Form 2 produces a very viscous solution, which can hardly be stirred with a magnetic stirrer.

[2] = Solubility in water; format: physicochemical; conditions: produces a very viscous solution
Protocol: as §1

[3] = medium pH = 1.2, 50 mg in 100 ml
[4] = phosphate buffer pH = 6.8, 50 mg in 100 ml
[5] = physiologically relevant medium: phosphate buffer pH 6.76 + sodium taurocholate (2.5 mM) + lecitin (0.5 mM)

Row | SMILES | Solubility compared with sodium salt of telmisartan manufactured by lyophilization [1] | C30 min [1, 3] | C30 min [1, 4] | C30 min [1, 5] | Solubility compared with sodium salt of telmisartan manufactured by lyophilization ([1]; listed as crystalline sodium salt of telmisartan) | Amount dissolving in water [2]
1 | CCCc1nc2c(C)cc(-c3nc4ccccc4n3C)cc2n1Cc1ccc(-c2ccccc2C(=O)[O-])cc1.[Na+] | substantially surpasses that manufactured by lyophilization | – | – | – | – | –
2 | CCCc1nc2c(C)cc(-c3nc4ccccc4n3C)cc2n1Cc1ccc(-c2ccccc2C(=O)O)cc1 [Form A, telmisartan] | – | >500 µg/mL | 0.9 µg/mL | 1.1 µg/mL | – | –
3 | CCCc1nc2c(C)cc(-c3nc4ccccc4n3C)cc2n1Cc1ccc(-c2ccccc2C(=O)[O-])cc1.[Na+] [Amorphous Na salt of telmisartan, Na Salt of Telmisartan] | – | 394.6 µg/mL | 29 µg/mL | 167.3 µg/mL | – | –
4 | CCCc1nc2c(C)cc(-c3nc4ccccc4n3C)cc2n1Cc1ccc(-c2ccccc2C(=O)[O-])cc1.[Na+] [Na salt Form 2, Crystalline Na Salt of Telmisartane Form 2] | – | – | – | – | surpasses that of the sodium salt of telmisartan manufactured by lyophilization | approximately 500 mg/mL
5 | CCCc1nc2c(C)cc(-c3nc4ccccc4n3C)cc2n1Cc1ccc(-c2ccccc2C(=O)O)cc1 [Amorphous telmisartan, telmisartan] | – | – | 17.6 µg/mL | 87.5 µg/mL | – | –
